Literature values as cited in patent US20050042280A1, “Aqueous based pharmaceutical formulations of water-soluble prodrugs of propofol” (priority 2001, published 2005).

Details: anesthetic induction doses, Bryson et al., Drugs 50 (1995) at 520

Q: For `CC(C)c1cccc(C(C)C)c1O` [propofol, 2,6-diisopropylphenol], which “patients with respiratory consequences, including a reduction in tidal volume and apnea” value is on record?
A: The value was “up to 83%”.
